Structures are written as SMILES. Where only a bound is given, the exact number is not on record here.

5HT2A receptor, sequence (P28223 whole entry): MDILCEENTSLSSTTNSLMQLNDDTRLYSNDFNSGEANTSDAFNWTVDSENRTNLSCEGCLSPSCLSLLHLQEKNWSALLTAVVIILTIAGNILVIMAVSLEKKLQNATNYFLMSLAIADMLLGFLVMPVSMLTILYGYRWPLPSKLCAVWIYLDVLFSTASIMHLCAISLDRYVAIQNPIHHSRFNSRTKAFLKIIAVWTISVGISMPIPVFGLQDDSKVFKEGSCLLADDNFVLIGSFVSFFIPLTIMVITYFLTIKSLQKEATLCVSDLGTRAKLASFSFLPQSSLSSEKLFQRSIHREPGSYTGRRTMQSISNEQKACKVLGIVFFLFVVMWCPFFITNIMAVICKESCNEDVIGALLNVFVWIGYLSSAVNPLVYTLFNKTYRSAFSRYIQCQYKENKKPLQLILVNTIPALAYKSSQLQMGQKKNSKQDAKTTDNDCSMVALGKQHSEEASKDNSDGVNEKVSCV

One assay has as its target 5HT2A receptor (Homo sapiens, UniProt P28223). In words: biochemical. It is filed as binding. The settings on record: 5HT2A Ki (nM), secondary binding assay, Cheng-Prusoff. Further details: expressed in transfected cells; crude membranes.
By Ki is commonly meant the equilibrium dissociation constant of an inhibitor or competing ligand from its target. Lower therefore signals tighter binding. Turning to `Cc1cccc2c(C34CNCCC3C4)n[nH]c12` (centres unmarked) [Example 193, 3-(3-azabicyclo[4.1.0]heptan-1-yl)-7-methyl-1H-indazole], the Ki was over 10000 nM. Take `CCCN1CCC=C(c2n[nH]c3c(C#N)cccc23)C1` [Example 176, 3-(1-propyl-1,2,5,6-tetrahydropyridin-3-yl)-1H-indazole-7-carbonitrile]: the Ki was over 10000 nM.

The molecule `Cc1cc(Br)cc2c(C3CNC3)c[nH]c12` [Example 265, 3-(azetidin-3-yl)-5-bromo-7-methyl-1H-indole] showed a Ki of 217 nM. `NC1CCC=C(c2n[nH]c3c(Cl)cccc23)C1` (centres unmarked) [Example 169, 3-(7-chloro-1H-indazol-3-yl)cyclohex-3-en-1-amine] showed a Ki of over 10000 nM. For the molecule `Cc1cccc2c(N3CCN(C)CC3)n[nH]c12` [Example 234, 7-methyl-3-(4-methylpiperazin-1-yl)-1H-indazole], the Ki came out at 259 nM. With `Cc1cccc2c(C3CN4CCC3CC4)c[nH]c12` (centres unmarked) [Example 253, 3-(7-methyl-1H-indol-3-yl)quinuclidine], the Ki is over 10000 nM. With `Clc1cccc2c(C3=CCOCC3)n[nH]c12` [Example 220, 7-chloro-3-(3,6-dihydro-2H-pyran-4-yl)-1H-indazole], the Ki was over 10000 nM. As to `FC1(F)CC(N2CCC=C(c3n[nH]c4c(Cl)cccc34)C2)C1` [Example 179, 7-chloro-3-(1-(3,3-difluorocyclobutyl)-1,2,5,6-tetrahydropyridin-3-yl)-1H-indazole], the affinity, expressed as Ki, was 8620 nM. As to `Cc1cccc2c(C34CNCC3C4(F)F)n[nH]c12` (centres unmarked) [Example 200], the Ki was over 10000 nM. `CN1CC=C(c2n[nH]c3c(Cl)cccc23)CC1` [Example 239, 7-chloro-3-(1-methyl-1,2,3,6-tetrahydropyridin-4-yl)-1H-indazole] registered a Ki of 603 nM.

The same assay, now with this note: 5HT2A Ki (nM), secondary radioligand binding, Ki from IC50 by Cheng-Prusoff.
For the molecule `CN1CCC=C(c2cn(C)c3ncccc23)C1` [Example 48, 1-methyl-3-(1-methyl-1,2,5,6-tetrahydropyridin-3-yl)-1H-pyrrolo[2,3-b]pyridine], the inhibition constant Ki amounted to 423 nM. `CC(C)c1ccc2c(C3=CCCNC3)c[nH]c2c1` [Example 33, 6-isopropyl-3-(1,2,5,6-tetrahydropyridin-3-yl)-1H-indole] registered a Ki of 1260 nM. The molecule `COc1cccc2c(C3=CCCN(C)C3)n[nH]c12` [Example 109, 7-methoxy-3-(1-methyl-1,2,5,6-tetrahydropyridin-3-yl)-1H-indazole] showed an inhibition constant (Ki) of over 10000 nM. Take `COc1ccc2c(C3=CCCN(C)C3)c[nH]c2c1` [Example 36, 6-methoxy-3-(1-methyl-1,2,5,6-tetrahydropyridin-3-yl)-1H-indole]: the affinity corresponds to a Ki of 8500 nM. The molecule `Clc1cccn2c(C3=CCCNC3)cnc12` [Example 110, 8-chloro-3-(1,2,5,6-tetrahydropyridin-3-yl)imidazo[1,2-a]pyridine] returned an inhibitory constant (Ki) of over 10000 nM. Regarding `CN1CCC=C(c2n[nH]c3cc(C#N)ccc23)C1` [Example 96, 3-(1-methyl-1,2,5,6-tetrahydropyridin-3-yl)-1H-indazole-6-carbonitrile], the Ki is 5470 nM. The same measure, in the same setting: for `CN1CCC=C(c2c[nH]c3c(C(C)(C)C)cccc23)C1` [Example 55, 7-(tert-butyl)-3-(1-methyl-1,2,5,6-tetrahydropyridin-3-yl)-1H-indole] the value was 374 nM; for `CCN(CC)C(=O)NC1C=C(c2c[nH]c3ncccc23)CNC1` (centres unmarked) [Example 49, 3-(5-(1H-pyrrolo[2,3-b]pyridin-3-yl)-1,2,3,6-tetrahydropyridin-3-yl)-1,1-diethylurea], 5580 nM. As for `COc1ccc2c(C3=CCCNC3)c[nH]c2c1` [Example 35, 6-methoxy-3-(1,2,5,6-tetrahydropyridin-3-yl)-1H-indole], the Ki was over 10000 nM. As to `CN1CCC=C(c2c[nH]c3cc(C(C)(C)C)ccc23)C1` [Example 38, 6-(tert-butyl)-3-(1-methyl-1,2,5,6-tetrahydropyridin-3-yl)-1H-indole], the Ki stood at 7880 nM. In other words, the single-digit micromolar range.

For the origin of these results see patent publication US20260265246A1 (ICAHN SCHOOL OF MEDICINE AT MOUNT SINAI, priority 2021, published 2026).
